{"source": "ChEMBL document CHEMBL1144167", "about": "“Development and biological evaluation of C(60) fulleropyrrolidine-thalidomide dyad as a new anti-inflammation agent” (2008)", "key": {"[1]": {"system": "RAW264.7", "test": "Antiinflammatory activity in mouse RAW264.7 cells assessed as inhibition of LPS-induced nitric oxide production at 10 uM pretreated for 3 hrs before LPS challenge assessed after 24 hrs by griess assay relative to control", "type": "functional", "parameters": "scale not given: the % may be the effect or the level left"}, "[2]": {"system": "RAW264.7", "test": "Antiinflammatory activity in mouse RAW264.7 cells assessed as inhibition of LPS-induced TNFalpha synthesis at 10 uM pretreated for 3 hrs before LPS challenge assessed after 24 hrs by ELISA relative to control", "type": "functional", "parameters": "scale not given: the % may be the effect or the level left"}, "[3]": {"system": "RAW264.7", "test": "Antiinflammatory activity in mouse LPS-activated RAW264.7 cells assessed as ROS scavenging activity at 10 uM pretreated for 3 hrs before LPS challenge measured by decrease in fluorescent intensity by confocal microscopy", "type": "functional, cell-based"}, "[4]": {"system": "RAW264.7", "test": "Reduction in iNOS expression in LPS-activated mouse RAW264.7 cells at 1 uM pretreated for 3 hrs before LPS challenge assessed after 24 hrs by Western blot", "type": "functional, cell-based"}, "[5]": {"system": "RAW264.7", "test": "Antiinflammatory activity in mouse RAW264.7 cells assessed as inhibition of LPS-induced nitric oxide production pretreated for 3 hrs before LPS challenge assessed after 24 hrs by griess assay", "type": "functional, cell-based"}, "[6]": {"system": "RAW264.7", "test": "Reduction in iNOS expression in LPS-activated mouse RAW264.7 cells at 10 uM pretreated for 3 hrs before LPS challenge assessed after 24 hrs by Western blot", "type": "functional, cell-based"}, "[7]": {"system": "RAW264.7", "test": "Reduction in pERK1/2 expression in LPS-activated mouse RAW264.7 cells at 10 uM pretreated for 3 hrs before LPS challenge assessed after 24 hrs by Western blot", "type": "functional, cell-based"}, "[8]": {"system": "RAW264.7", "test": "Antiinflammatory activity in mouse LPS-activated RAW264.7 cells assessed as mean fluorescent intensity of ROS scavenging activity at 10 uM pretreated for 3 hrs before LPS challenge by FACS", "type": "functional"}}, "note": "Activity calls are given as the source filed them. The calls are words filed in the database; no cut-off is given here.", "data": [{"smiles": "O=C1CCC(N2C(=O)c3ccccc3C2=O)C(=O)N1", "note": "(stereo not drawn) [THALIDOMIDE]", "values": [{"measurement": "Activity", "setting": "[1]", "result": 44.1, "unit": "%"}, {"measurement": "Activity", "setting": "[2]", "result": 55.5, "unit": "%"}, {"measurement": "Activity", "setting": "[3]", "result": "Active"}, {"measurement": "Activity", "setting": "[4]", "result": "Active"}, {"measurement": "Activity", "setting": "[5]", "result": "Dose-dependent effect"}, {"measurement": "Activity", "setting": "[6]", "result": "Active"}, {"measurement": "Activity", "setting": "[7]", "result": "Active"}, {"measurement": "Flu intensity", "setting": "[8]", "result": 468.37}]}]}
